Data as given in US11203577B2, “Sulfonyl-structure-containing triazinone derivatives, their preparation methods and their uses in insect killing and/or bacterium killing” (Nankai University, priority 2017, dated 2021).
Read-outs that look alike come from different tables or passages of the source.

Legend:
Cucumber fusarium wilt = assay: In vitro fungicidal activity, PDA colony diameter; type: cell-based; settings: 96 h, 50 mg/kg, inhibition of colony diameter, read-out: Fungicidal activity (%) Cucumber fusarium wilt
[1] = system: Cercospora brown spot of peanut; assay: In vitro fungicidal activity, PDA colony diameter; type: cell-based; settings: 96 h, 50 mg/kg, inhibition of colony diameter, read-out: Fungicidal activity (%) Cercospora brown spot of peanut
Tomato early blight = assay: In vitro fungicidal activity, PDA colony diameter; type: cell-based, Alternaria solani; settings: 50 mg/kg, inhibition of colony diameter; read-out: Fungicidal activity (%) Tomato early blight
Wheat head blight = assay: whole plant or invertebrate; type: cell-based; settings: Triticum aestivum, read-out: Fungicidal activity (%) Wheat head blight
Rice bakanae disease = assay: In vitro fungicidal activity, PDA colony diameter; type: cell-based; settings: 50 mg/kg, inhibition of colony diameter; read-out: Fungicidal activity (%) Rice bakanae disease
Sclerotinia rot of colza = assay: In vitro fungicidal activity, PDA colony diameter; type: cell-based; settings: 96 h, 50 mg/kg, inhibition of colony diameter, read-out: Fungicidal activity (%) Sclerotinia rot of colza
Apple ring rot = assay: In vitro fungicidal activity, PDA colony diameter; type: cell-based; settings: inhibition of colony diameter
Outline: (§1)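 Percent growth inhibition derived from colony diameter versus compound-free PDA control after 4 days' culture. Plates contained compound at 50 mg/kg; inoculum was a plug taken from the periphery of a 7-day PDA culture.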

[2] = system: Capsicum phytophthora blight; assay: In vitro fungicidal activity, PDA colony diameter; type: cell-based; settings: 96 h
Outline: as §1

Wheat sheath blight = assay: In vitro fungicidal activity, PDA colony diameter; type: cell-based; settings: 50 mg/kg, inhibition of colony diameter; read-out: Fungicidal activity (%) Wheat sheath blight
[3] = system: Corn southern leaf blight; assay: In vitro fungicidal activity, PDA colony diameter; type: cell-based; settings: 50 mg/kg, inhibition of colony diameter; read-out: Fungicidal activity (%) Corn southern leaf blight
Watermelon anthracnose = assay: In vitro fungicidal activity, PDA colony diameter; type: cell-based; settings: 50 mg/kg, inhibition of colony diameter; read-out: Fungicidal activity (%) Watermelon anthracnose
Potato late blight = assay: microbe, parasite or virus in culture; type: cell-based; settings: Phytophthora infestans, 96 h, read-out: Fungicidal activity (%) Potato late blight
Rice sheath blight = assay: In vitro fungicidal activity, PDA colony diameter; type: cell-based; settings: read-out: Fungicidal activity (%) Rice sheath blight
Armyworms = assay: Test of insecticidal activity against armyworms (leaf immersion); settings: 600 mg/kg, 3-4 days
Maize borers = assay: Test of insecticidal activity against maize borers (leaf immersion); settings: read-out: Mortalities (%) Maize borers
[4] = system: mosquito larvae (Culer pipiens pallens); assay: Test of insecticidal activity against mosquito larvae (checked after 24 h)
Procedure: Method of testing against mosquito larvae: the tested mosquito larvae are Culer pipiens pallens, a normal colony fed indoor. About 5 mg compound to be tested is weighed and loaded into a penicillin vial, 5 mL acetone (or an appropriate solvent) is added into the vial, and the vial is oscillated to dissolve the compound; thus, 1,000 ppm mother liquid is obtained. 1 mL mother liquid is weighed and added into a 100 mL beaker filled with 89 mL water, 10 mosquito larvae in the early stage of the 4th instar together with 10 mL feeding solution are poured into the beaker; thus, the concentration of the pesticide solution is 10 ppm (the pesticide solutions with other concentrations are attained by diluting the mother liquid by corresponding times). […] Water solution that contains 0.5 mL test solvent is used as a blank sample.

[5] = system: bean aphides (Aphis laburni Kaltenbach); assay: Test of insecticidal activity against aphides (leaf immersion, checked after 96 h); settings: for mortality at 5 mg/kg / mortality at 10 mg/kg / mortality at 100 mg/kg / mortality at 600 mg/kg: Aphis, 96 h, read-out: Mortalities (%) against aphides; for insecticidal activity against aphides compared with pymetrozine: 5 mg/kg
Procedure: The insecticidal activity against aphides is tested through the following steps: the tested aphides are bean aphides (Aphis laburni Kaltenbach), a normal colony fed with broad bean leaves in a laboratory. The pesticide is weighed, 1 mL DMF is added to dissolve the pesticide, then two drops of emulsifier, Tween-20 are added, and distilled water is added in an appropriate amount; the mixture is stirred to a homogeneous state to prepare pesticide solution at required concentration (see the following table for the specific concentration). […] In a control group, only emulsifier and solvent are added into distilled water, and the mixture is stirred to a homogeneous state.

Cotton bollworms = assay: Test of insecticidal activity against cotton bollworms (pesticide mixed into feedstuff); settings: read-out: Mortalities (%) Cotton bollworms
Procedure: Method of testing against cotton bollworms: the pesticide is mixed into the feedstuff, i.e., 3 mL prepared solution is added into about 27 g freshly prepared feedstuff; thus, required concentration is obtained by diluting by 10 times.

[6] = 50 mg/kg, inhibition of colony diameter
[7] = 24 h, read-out: Mortalities (%) against mosquito larvae

Row | SMILES | inhibition of growth at 50 mg/kg (Cucumber fusarium wilt) [%] | inhibition of growth at 50 mg/kg [1] [%] | inhibition at 50 mg/kg (Tomato early blight) [%] | inhibition at 50 mg/kg (Wheat head blight) [%] | inhibition at 50 mg/kg (Rice bakanae disease) [%] | inhibition of growth at 50 mg/kg (Sclerotinia rot of colza) [%] | inhibition at 50 mg/kg (Apple ring rot) [%] | inhibition of growth at 50 mg/kg [2] [%] | inhibition at 50 mg/kg (Wheat sheath blight) [%] | inhibition at 50 mg/kg [3] [%] | inhibition at 50 mg/kg (Watermelon anthracnose) [%] | inhibition of growth at 50 mg/kg (Potato late blight) [%] | inhibition at 50 mg/kg (Rice sheath blight; [6]) [%] | Mortalities (%) Armyworms (Armyworms) [%] | mortality at 600 mg/kg (Maize borers) [%] | mortality at 10 mg/kg [4, 7] [%] | mortality at 10 mg/kg [5] [%] | mortality at 100 mg/kg [5] [%] | mortality at 600 mg/kg [5] [%] | mortality at 600 mg/kg (Cotton bollworms) [%] | further results
1 | CC(=O)Nc1ccc(S(=O)(=O)NN2CC(C)=NNC2=O)cc1 [Ia-24, N-(4-(N-(6-methyl-3-oxo-2,3-dihydro-1,2,4-triazin-4(5H)-yl)sulfamyl)phenyl)acetamide] | 0 | 15.8 | 23.8 | 6.7 | 27.8 | 40 | 13.8 | 24.5 | 52.3 | 25 | 12.5 | 22.2 | 50.8 | 5 | 5 | 100 | 75 | 95 | 100 | 50 | mortality at 5 mg/kg [4, 7]: 45%; mortality at 5 mg/kg [5]: 10%
2 | CC1=NNC(=O)N(NS(=O)(=O)c2ccc(C#N)cc2)C1 [Ia-25, 4-cyano-N-(6-methyl-3-oxo-2,3-dihydro-1,2,4-triazin-4(5H)-yl)-benzenesulfonamide] | 8.8 | 12 | 16.4 | 5.4 | 17.2 | 26.3 | 4.1 | 22.2 | 14.3 | 0 | 24.6 | 18.7 | 13.9 | 10 | 25 | 100 | 85 | 100 | 100 | 35 | mortality at 2 mg/kg [4, 7]: 40%; mortality at 5 mg/kg [4, 7]: 100%; insecticidal activity against aphides compared with pymetrozine [5]: equivalent to the insecticidal activity of pymetrozine; mortality at 5 mg/kg [5]: 20%
3 | CC1=NNC(=O)N(NS(=O)(=O)c2ccc(C(F)(F)F)cc2)C1 [Ia-26, N-(6-methyl-3-oxo-2,3-dihydro-1,2,4-triazin-4(5H)-yl)-4-(trifluoromethyl)-benzenesulfonamide] | 2.9 | 12 | 13.4 | 13.5 | 17.2 | 15.8 | 23 | 27.8 | 0 | 6.3 | 34.4 | 34.3 | 20.9 | 45 | 40 | 100 | 100 | 100 | 100 | 0 | mortality at 1 mg/kg [4, 7]: 20%; mortality at 2 mg/kg [4, 7]: 100%; mortality at 5 mg/kg [4, 7]: 100%; insecticidal activity against mosquito larvae ([4]; in vivo): relatively high insecticidal activity; insecticidal activity against aphides compared with pymetrozine [5]: equivalent to the insecticidal activity of pymetrozine; mortality at 5 mg/kg [5]: 30%
4 | CC1=NNC(=O)N(NS(=O)(=O)c2ccc(OC(F)(F)F)cc2)C1 [Ia-27, N-(6-methyl-3-oxo-2,3-dihydro-1,2,4-triazin-4(5H)-yl)-4-(trifluoromethoxy)-benzenesulfonamide] | 0 | 12 | 16.4 | 16.2 | 17.2 | 15.8 | 24.3 | 27.8 | 4.3 | 15.6 | 16.4 | 28.1 | 17.4 | 5 | 15 | 100 | 100 | 100 | 100 | 25 | mortality at 2 mg/kg [4, 7]: 20%; mortality at 5 mg/kg [4, 7]: 90%; insecticidal activity against aphides compared with pymetrozine [5]: equivalent to the insecticidal activity of pymetrozine; mortality at 5 mg/kg [5]: 35%
5 | CC1=NNC(=O)N(NS(=O)(=O)c2cccs2)C1 [Ia-28, N-(6-methyl-3-oxo-2,3-dihydro-1,2,4-triazin-4(5H)-yl)-thienyl-2-sulfonamide] | 0 | 12 | 23.9 | 8.1 | 17.2 | 15.8 | 0 | 25 | 8.7 | 18.7 | 0 | 0 | 17.4 | 5 | 5 | 100 | 65 | 100 | 100 | 10 | mortality at 5 mg/kg [4, 7]: 20%
6 | CC1=NNC(=O)N(NS(=O)(=O)c2ccsc2)C1 [Ia-29, N-(6-methyl-3-oxo-2,3-dihydro-1,2,4-triazin-4(5H)-yl)-thienyl-3-sulfonamide] | 12.8 | 19.2 | 25 | 21.2 | 3.7 | 12.5 | 52.4 | 23.1 | 20.8 | 13.9 | 18.8 | 23.8 | 35.7 | 10 | 15 | 35 | 30 | 85 | 95 | 20 | –
7 | CC1=NNC(=O)N(NS(=O)(=O)c2c(C)noc2C)C1 [Ia-30, 3,5-dimethyl-N-(6-methyl-3-oxo-2,3-dihydro-1,2,4-triazin-4(5H)-yl)-isoxazolyl-4-sulfonamide] | 23.1 | 19.2 | 20 | 12.1 | 14.8 | 12.5 | 23.8 | 11.5 | 7.5 | 19.4 | 25 | 14.3 | – | 20 | 15 | 35 | – | 45 | 95 | 25 | inhibition at 50 mg/kg (Rice sheath blight): 14.3%
8 | CC1=NNC(=O)N(NS(=O)(=O)c2cn(C)cn2)C1 [Ia-31, 1-methyl-N-(6-methyl-3-oxo-2,3-dihydro-1,2,4-triazin-4(5H)-yl)-1H-imidazolyl-4-sulfonamide] | 14.7 | 13 | 16.1 | 17.2 | 12.5 | 31.6 | 29.4 | 18.8 | 47.1 | 2.6 | 28.1 | 18.8 | 5.8 | 10 | 15 | 60 | 35 | 100 | 100 | 5 | –
